Data set [1] has as its system human promyelocytic leukemia HL-60 cells. As to the kind of experiment: Induction of apoptosis (morphology) in HL-60 cells. It is filed as cell-based. The settings on record: for Maximum percentage of cells exhibiting frank apoptotic morphology: FIG. 9; for Appearance of apoptotic bodies / increase in apoptosis: 24 hours exposure, about 10 micromols. On the procedure:
(§1) The ability of the prodrug compounds to kill human tumor cells was tested, specifically their ability to induce apoptosis in human promyelocytic leukemia HL-60 cells. These cells are known to undergo apoptosis following exposure to ara-C. The ability of the prodrugs to cause internucleosomal DNA fragmentation, a characteristic feature of apoptosis in HL-60 cells, was also investigated. The HL-60 were cultured in essentially the same manner as the L-1210 cells, only using Iscoue's modification for the medium. Internucleosomal DNA fragmentation was determined as follows. Following the indicated drug treatments, aliquots of cells (1×10^6) were pelleted by centrifugation at 100×g for 5 minutes, washed with PBS, solubilized with 20 microliters of lysis buffer (10 mM EDTA, 0.5% sarkosyl, 1 mg/ml proteinase K, 50 mM Tris, pH8), and incubated at 50° C. for 1 hour. After incubation, RNaseA (Boehringer Mannheim) was added to a final concentration of 0.33 mg/ml and incubated for an additional hour at 37° C. The lysate was loaded into dry wells of a 1.8% agarose gel, the wells were sealed with low melting point agarose, and the DNA was electrophoresed using Tris-phosphate-EDTA (TPE) running buffer. After electrophoresis, the DNA was stained by immersion of the gel in water containing 1 μg/ml ethidium bromide (Sigma). The DNA was visualized and photographed using an ultraviolet transilluminator.
The formation of apoptotic bodies occurred within a maximal halftime of 4 hours and there was no noticeable difference in the kinetics of apoptosis among ara-C, 10, 15 and 17.

Data set [2] can be described thus: Release of ara-C from prodrugs in human plasma by HPLC. It is filed as in vitro ADME. The following applies: pH 7.4, 22° C. The protocol:
(§2) HPLC studies of the cyclization process in plasma were performed on a 4 mg/ml solution of prodrug in plasma. At appropriate time intervals, 25 microliter aliquots were removed and 0.20 ml of CH3 CN was added to precipitate the protein. After centrifugation, about 25 microliters of clear supernatant liquid was injected directly into the HPLC port. The HPLC analysis was performed with a C-18 reverse phase column using an H2 O/CH3 CN (1:1) eluent and the UV detector was set at 250 nm. The relative concentration of ara-C was determined by the relative peak areas. […] The disappearance of characteristic signals of the prodrugs was accompanied by the appearance of signals of ara-C and the corresponding heterocycles. […] FIGS. 6 through 8 plot the percent concentration of prodrug over time. Table 1 below provides the half life (in hours) for ara-C release of prodrugs 10, 15, 17 and 19 as determined by NMR and HPLC analysis.

Data set [3] in a line: Release of ara-C from prodrugs (cyclization) in CD3OD or D2O monitored by 1H NMR. The data set is classed as physicochemical. The settings on record: for Half-life (hours) for release of ara-C, t1/2: 22° C., 1H NMR. On the procedure: The stability of the ara-C prodrug compounds 10, 15, 17 and 19, prepared according to Example 1, in various reaction media was investigated by NMR and HPLC analyses. The ^1 H NMR studies of the cyclization process were performed on a 4 mg/ml solution of prodrug in CD3 OD or D2 O. Sodium acetate (2 mg) or acetic acid (2 microliters) were added neat to the samples to control the pH. The spectra were collected in appropriate time intervals, and the ratio of prodrug to drug was determined by comparing the integration of the H-C (6) on the nucleoside of prodrug and ara-C.

The test system of data set [4] is Murine L-1210 leukemia cells. As to the kind of experiment: L-1210 cell line growth inhibition assay. The data set is classed as cell-based. On the procedure:
The antiproliferation activity of compounds 10, 15, 17 and 19, as compared to ara-C, was tested in an L-1210 cell line growth inhibition assay using various concentrations and continuous exposure. Cell numbers were determined 72 hours after initial drug exposure. Murine L-1210 leukemia cells were grown in suspension using Dulbecco's medium (Gibco/BRL) supplemented with 10% fetal bovine serum (FBS, HyClone), […] of L-glutamine, 100 U/ml penicillin G sodium, and 100 μg/m1 streptomycin (Gibco/BRL). Cells were grown in a humidified incubator as 37° C. under an atmosphere of 95% air and 5% CO2. Cells were routinely passaged at a 1:5 ratio and found to be free of mycoplasma contamination.

Data set [5] is described as follows: Stability in bovine or human plasma by HPLC (plasma not distinguished). It is filed as in vitro ADME. The settings on record: for Cyclization / stability in plasma: bovine or human plasma, HPLC. The protocol:
as §2
The stability of these compounds in bovine and human plasma was determined by HPLC analysis (Entry 5 and 6 in Table 1).

Data set [6] in a line: Release of ara-C from prodrugs in bovine plasma by HPLC. It is filed as in vitro ADME. The settings on record: pH 7.4, 22° C. The protocol:
as §2

In data set [7] the test system is human promyelocytic leukemia HL-60 cells. Kind of data set: Internucleosomal DNA fragmentation in HL-60 cells. It is filed as cell-based. The protocol:
as §1, with “These cells are known to undergo apoptosis following exposure to ara-C.” left out
DNA fragmentation of the compounds was tested.

For data set [8] the following is noted: total; cited from earlier work.
Setting [9] is: continuous exposure, cell numbers 72 hours after initial drug exposure.
Where [10] appears, read: Mus musculus, L1210, continuous exposure, cell numbers 72 hours after initial drug exposure.

Converted amounts (≈) assume the structure as drawn.

Take “Aib-Aib-ara-C hydrochloride [Compound 15]”: the “Maximal halftime of formation of apoptotic bodies” value (from here on “Maximal halftime”) in data set [1] is no more than 4 h. Moreover, in data set [1], the “Maximum percentage of cells exhibiting frank apoptotic morphology” value is “approximately 25%”. The “Half-life (hours) for release of ara-C, t1/2” value (“Half-life (hours) for release” for short) was 0.4 h in data set [2]; greater than 1000 h in data set [3] (CD3OD); greater than 1000 h in data set [3] (CD3OD, HOAc); 1.3 h in data set [3] (CD3OD, NaOAc); 0.5 h in data set [6]. The “IC50 and IC90 values compared with ara-C control” value in data set [4] (L-1210 cells) is “essentially identical to the ara-C control”. Also, the “L-1210 Cell Growth Inhibition IC50” value in data set [4] (setting [9]) is 1.1 ng/mL. Moreover, in data set [4] (setting [9]), the “L-1210 Cell Growth Inhibition IC90” value is 3.4 ng/mL. In addition, the “Cyclization / stability in plasma” value in data set [5] is recorded as “cyclize readily”.
For `Nc1ccn([C@@H]2O[C@H](CO)[C@@H](O)[C@@H]2O)c(=O)n1` [ara-C, 1-(β-D-arabinofuranosyl) cytosine, reference compound], in data set [7] (about 10 micromols, 4 hours), the “Internucleosomal DNA fragmentation” value is given as “displayed internucleosomal 180-200 base pair DNA fragments”. In addition, in data set [1], the “Maximal halftime” value was no more than 4 h, the “Appearance of apoptotic bodies / increase in apoptosis” value was “obvious apoptotic bodies” and the “Maximum percentage of cells exhibiting frank apoptotic morphology” value is “approximately 25%”. The “Fraction of dose excreted in the urine within 24 hours” value in data set [8] is recorded as “About 80%”. Moreover, in data set [4] (setting [10]), the concentration for half-maximal inhibition (IC50) (usually the concentration that gives 50% inhibition) came to 1.5 ng/mL (≈ 0.00617 µM) and the 90% effect concentration (IC90) (as a rule, the point of the concentration-response curve where the effect stands at 90%) worked out at 4.3 ng/mL (≈ 0.0177 µM).
Regarding `CC(C)(N)C(=O)NNC(=O)Nc1ccn([C@@H]2O[C@H](CO)[C@@H](O)[C@@H]2O)c(=O)n1.Cl` [Compound 19, Aib-2-Azagly-ara-C hydrochloride], the “DNA fragmentation after preincubation” value in data set [7] (compound preincubated in serum-free medium for 15 days) is recorded as “DNA ladders similar ara-C”. Also, the “Appearance of apoptotic bodies / increase in apoptosis” value in data set [1] was “no obvious increase in apoptosis”. Besides, the “Apoptotic activity after preincubation” value in data set [1] (compound preincubated in serum-free medium for 15 days, FIG. 10) is recorded as “slightly less than ara-C”. For the same molecule, the “Half-life (hours) for release” value in data set [2] was greater than 10 h; in data set [3] (CD3OD), greater than 2000 h; in data set [3] (CD3OD, HOAc), greater than 2000 h; in data set [3] (CD3OD, NaOAc) it was 800 h; in data set [6], greater than 10 h. The “Cyclization to release the drug” value in data set [3] (in the presence of NaOAc) is listed as “extremely slow”; in data set [3] (neutral or acid conditions) it was “did not undergo cyclization”. In addition, the “Times less toxic than ara-C in L-1210 test” value in data set [4] (L-1210 cells, versus ara-C) is recorded as “about 500 times”. For the same molecule, the “L-1210 Cell Growth Inhibition IC50” value in data set [4] (setting [9]) was 600 ng/mL. The “L-1210 Cell Growth Inhibition IC90” value in data set [4] (setting [9]) was found to be 1400 ng/mL. Moreover, the “Cyclization / stability in plasma” value in data set [5] is “good stability”. The “ara-C detected in plasma after 48 hours” value in data set [5] (plasma, after 48 hours) is reported as “No ara-C was detected”.
As for `CC(C)(NC(=O)[C@@H](N)Cc1ccc(OCc2ccccc2)cc1)C(=O)Nc1ccn([C@@H]2O[C@H](CO)[C@@H](O)[C@@H]2O)c(=O)n1.Cl` [Compound 10, Tyr(OBn)-Aib-ara-C hydrochloride], the “Maximal halftime” value in data set [1] is no more than 4 h. For the same molecule, the “Maximum percentage of cells exhibiting frank apoptotic morphology” value in data set [1] is recorded as “approximately 25%”. For the same molecule, the “Half-life (hours) for release” value in data set [2] was 0.3 h; in data set [3] (CD3OD), 42 h; in data set [3] (CD3OD, HOAc), 31 h; in data set [3] (CD3OD, NaOAc), 0.3 h; in data set [3] (D2O) it was 21 h; in data set [6], 0.4 h. For the same molecule, in data set [3] (D2O versus CD3OD), the “Faster cyclization upon change from CD3OD to D2O” value was “about 50%”. In addition, the “IC50 and IC90 values compared with ara-C control” value in data set [4] (L-1210 cells) is listed as “essentially identical to the ara-C control”. The “L-1210 Cell Growth Inhibition IC50” value in data set [4] (setting [9]) amounted to 1.3 ng/mL. Besides, the “L-1210 Cell Growth Inhibition IC90” value in data set [4] (setting [9]) stood at 5 ng/mL. The “Cyclization / stability in plasma” value in data set [5] is on record as “cyclize readily”.
For the molecule Glc-Aib-ara-C [Compound 17], the “Maximal halftime” value in data set [1] was no more than 4 h. Further, the “Maximum percentage of cells exhibiting frank apoptotic morphology” value in data set [1] is given as “approximately 25%”. Moreover, the “Half-life (hours) for release” value in data set [2] turned out to be 0.3 h; in data set [3] (CD3OD), 360 h; in data set [3] (CD3OD, HOAc), 860 h; in data set [3] (CD3OD, NaOAc), 1.4 h; in data set [6] it was 0.4 h. Further, in data set [4] (L-1210 cells), the “IC50 and IC90 values compared with ara-C control” value is on record as “essentially identical to the ara-C control”. Moreover, the “L-1210 Cell Growth Inhibition IC50” value in data set [4] (setting [9]) amounted to 1.0 ng/mL. Also, in data set [4] (setting [9]), the “L-1210 Cell Growth Inhibition IC90” value was 3.4 ng/mL. In addition, in data set [5], the “Cyclization / stability in plasma” value was “cyclize readily”.
